Experimental data published in patent US7662767B2, “Polynucleotide intercalator interceptors and inhibitors” (Materials Evolution and Development USA, Inc., priority 2000, dated 2010).
“Also recorded” adds a separate entry of the source.

Key:
[1] = Optical absorbance titration of chlorophyllin with acridine orange; assay type: binding; details: AO:chlorophyllin ratio between 0.1 and 30
Source text: The invention is not limited to the use of xanthines as interceptor molecules. For example, chlorophyllin and porphyrins may be used as a binding agent to intercalator molecules. FIG. 2-3 shoes the optical absorbance spectra titrating cholorphyllin with increasing concentraitons of acridine orange. The selected spectra denoting important transitions within the titration series are denoted by the bold lines. At AO:chlorophyllin ratio between 0.1 and 30, prevalent peaks occur at λabs of 415 nm for chlorophyllin, 475 nm, and 492 nm. These later peaks correspond to the prevalent absorbance peaks found at concentrations of AO at 10 μM and higher concentrations. […] Thus, other compounds may be used as interceptors such as, but not limited to porphyrins, purines, pyrimidines, polynucleotides and uric acid.

[2] = Absorbance binding spectra of doxorubicin titrated with caffeine or chlorophyllin; details: 10 μM doxorubicin
[3] = test system: Drosophila salivary gland polytene chromosome; experiment: Removal of DNA binding stains from polytene chromosome bands by xanthine wash; parameters: species or system Drosophila melagaster; details: for Re-staining following Xanthine Exposure / Staining before Xanthine Exposure: 1 mM stain, 30 minutes; for Degree of Stain Removal, Exposure to AM (100 mM) / Degree of Stain Removal, Exposure to CAF (100 mM): 15 minute wash, static
Procedure: In another implementation, giant polytene chromosomes were prepared by the squash technique from the salivary gland of Drosophila melagaster larva The salivary gland was placed on a microscope slide, squashed with a glass cover slide, fixed with acidic acid, rinsed with distilled water, and allowed to dry (kindly provided by Linda Chadwell, UTHSCSA-IBT). Three known DNA intercalators, ethidium bromide (98% purity, Aldrich Chemical Company, Milwaukee, Wis.), doxorubicin (98%, Sigma Chemnical Company, St. Louis, Mo.), and acridine orange plus the minor groove binding DNA stain Hoechst 33258 (98%, ACROS Chemical Company, NJ) were prepared in distilled water at a concentration of 1 mM (for chemical structures see FIG. 4-1, where acridine orange (3,6-bis [dimethylamino] acridine) is shown in Panel A, ethidium bromide is shown in Panel B, doxorubicin is shown in Panel C, Hoechst 33258 is shown in Panel D). The slides with prepared chromosomes were immersed in these stains for a period of 30 minutes, rinsed with distilled water, and dried at room temperature. Fluorescence microscopic analysis was conducted at λex 360 nm and photomicrographs were conducted on a Zeiss Model 63 Microscope with a xenon source fluorescent emitter. Photomicrographs were taken using Kodak Gold 35 mm ASA 1600 speed film noting the position of one individual chromosome on the slide. The stained slides were then subjected to 100 mM caffeine or 100 mM aminophylline under static conditions for a period of 15 minutes, rinsed with distilled water, then allowed to dry at room temperature. The presence of the same individual unstained chromosome in the field was confirmed by phase contrast microscopy. The chromosome was viewed again under fluorescence microscopy at […], and color recorded. Slides were re-stained by immersion in the 1 mM stain for a period of 30 minutes, rinsed with distilled water, and dried at room temperature, and the same individual chromosome was examined by fluorescence microscopy and the fluorescence color recorded.
FIG. 4-3 depicts three photomicrographs of the same Drosophila polytene chromosome: after staining with the DNA minor groove binder Hoechst 33258 dye (Panel A), after rinsing with CAF for 15 minutes (Panel B), and a phase contrast verification of the presence of the chromosome after the CAF rinse (Panel C). Table 4-4 summarizes the results from the experiments using caffeine (CAF) and aminophylline (AM) to remove the following DNA intercalators: doxorubicin, ethidium bromide, acridine orange, and the DNA minor groove binder Hoechst 33258 from their binding sites within polytene chromosomes. […] With all DNA intercalators, the staining of chromosome bands was intense before the xanthine rinses and was again intense following re-staining.

Degree of Stain Removal, Exposure to AM (100 mM) ([3]; listed as doxorubicin) | Compound | complexation with acridine orange [1] | binding to doxorubicin [2] | Re-staining following Xanthine Exposure [3] | Staining before Xanthine Exposure [3] | Degree of Stain Removal, Exposure to AM (100 mM) [3] | Degree of Stain Removal, Exposure to CAF (100 mM) [3]
 | chlorophyllin | complexes with acridine orange | doxorubicin can be bound to chlorophyllin |  |  |  | 
 | CN1CCN(c2ccc3[nH]c(-c4ccc5[nH]c(-c6ccc(O)cc6)nc5c4)nc3c2)CC1 [Hoechst 33258] |  |  | Complete | Banding | apparently complete removal | apparently complete removal
only moderately removed | COc1cccc2c1C(=O)c1c(O)c3c(c(O)c1C2=O)C[C@@](O)(C(=O)CO)C[C@@H]3O[C@H]1C[C@H](N)[C@H](O)[C@H](C)O1 [Doxorubicin, doxorubicin] |  |  | Complete | Banding | Moderate | completely removed; also recorded: Complete
